From patent US20080227863A1, “Organic Compounds” (Novartis AG, priority 2005, published 2008)

## N#CC(C#N)(COc1ccccc1Cl)NC(=O)c1ccc(OC(F)(F)F)cc1 [Compound 1.3, N-[2-(2-Chloro-phenoxy)-1,1-dicyano-ethyl]-4-trifluoromethoxy-benzamide]
  melting point: 154 to 155 °C
